This test concerns calcium-induced arrythmias. The test is described as follows: Calcium-induced arrhythmia model in mice (CaCl2-induced 2nd degree AV-block). Type of test: in vivo. Further details: CaCl2 mice Score: scale not given here. To be noted: for CaCl2 mice In vivo, % / CaCl2 mice Score: calcium chloride induced arrythmia model; for In vivo activity: maximal effect, increase in time until 2nd degree AV-block relative to vehicle treated mice, i.v. On the procedure:
The antiarrhythmic effects of compounds of this invention were tested in an in vivo model of calcium-induced arrythmias according to the model of Lynch et al.^[37]. […]. Commercial solutions of hypnorm and midazolam were diluted 1:1 in distilled water and one part diluted Hypnorm® is mixed with one part diluted midazolam.
The anaesthesia was induced by s.c. administration in a dose of 0.05-0.075 μl/10 gram mouse. An i.v. cannula was inserted into the tail vein. The lead II ECG signal was recorded continuously by positioning of a stainless steel ECG electrodes on the right forelimb and on the left hind limb. The ground electrode was placed on the right hind limb. The signal was amplified (×5.000-10.000) and filtered (0.1-150 Hz) via a Hugo Sachs Electronic model 689 ECG module. The analogue signal was digitised via a 12 bit data acquisition board (Data Translation model DT321) and sampled at 1000 Hz using the Notocord HEM 3.1 software for Windows NT. After a 10-min equilibration period, the test sample of drug was injected into the tail vein. Mice pre-treated with vehicle were tested as a measure of the control level in untreated animals. The injection volume was 100 μl in all experiments. Infusion of CaCl2 (30 mg/ml, 0.1 ml/min≈100 mg/kg/min (calciumchlorid-2-hydrat, Riedel-de Haën, Germany)) was started 3 min after i.v. administration of drug or vehicle.
The time lag to onset of 2nd degree AV-block was determined as the time from the start of CaCl2 infusion until the first arrhythmic event occured. An event of 2nd degree AV-block was defined as intermittent failure of the AV conduction characterised by a P-wave without the concomitant QRS complex.
Responses were expressed relative to the time until 2nd degree AV-block occurred in vehicle treated mice.

Where a SMILES comes first, the peptide text is derived from it. [ ]: non-standard residue; d: D form. The star is where a group is joined. Dnp = O=[N+]([O-])c1ccc(*)c([N+](=O)[O-])c1; X1 = [N-]=[N+]=Nc1cc(O)c(C(=O)*)cc1I; Hyp = O=C(O)[C@@H]1C[C@@H](O)CN1; dHyp = O=C(O)[C@H]1C[C@H](O)CN1; Pip = O=C(O)[C@@H]1CCCCN1; Thz = O=C(O)[C@@H]1CSCN1; Acm = CC(=O)NC*; Sar = CNCC(=O)O

In the case of “3(4-hydroxyphenyl)propionyl-Pro-Hyp-Gly-Ala-Gly-Lys-Lys-Lys-Lys-Lys-Lys-NH2 [Compound 51]”, the “CaCl2 mice In vivo, %” value is given as 21 +/− 17% and the “CaCl2 mice Score” value turned out to be 1.
In the same order, the values of “3(4-hydroxyphenyl)propionyl-Pro-Hyp-Gly-Ala-Gly-Lys-Lys-Lys-Lys-Lys-Lys-OH [Compound 49]” are 80 +/− 17% and 3.
For “3-(4-hydroxyphenyl)propionyl-Pro-Hyp-Gly-Ala-Gly-OH [HP5, reference compound]”, the “CaCl2 mice In vivo, %” value is reported as 50 +/− 11%; the “CaCl2 mice Score” value was 2; the In vivo activity result is reported as “++ (++ refers to 30-50% increase in time until arrhythmia)”.
Turning to `CC(=O)NCC(=O)N[C@@H](CC(=O)O)C(=O)N[C@@H](CC(N)=O)C(=O)N[C@@H](Cc1ccc(O)cc1)C(N)=O` [Ac-G-D-N-Y-NH2] (Ac-GDNY-NH2), the “CaCl2 mice In vivo, %” value is 19 +/− 8%.
Same read-out and setting: as for `CC(=O)N[C@@H](Cc1ccc(O)cc1)C(=O)N[C@@H](CC(=O)O)C(=O)N[C@@H](CC(N)=O)C(=O)NCC(N)=O` [Ac-Y-D-N-G-NH2] (Ac-YDNG-NH2), the figure is 17 +/− 8%; as for `CC(=O)N[C@@H](Cc1ccc(O)cc1)C(=O)N[C@H](CC(N)=O)C(=O)NCC(=O)O` [Ac-Y-DN-G-OH] (Ac-Tyr-[dN]-Gly-OH), 44 +/− 10%.
With `CC(=O)N[C@@H](Cc1ccc(O)cc1)C(=O)N1CCC[C@H]1C(=O)N1C[C@H](O)C[C@H]1C(=O)NCC(=O)N[C@@H](C)C(=O)NCC(=O)O` [Compound 1, Ac-Tyr-Pro-4Hyp-Gly-Ala-Gly-OH] (Ac-YP[Hyp]GAG-OH), the “CaCl2 mice In vivo, %” value is recorded as 50 +/− 20% and the In vivo activity entry is on record as “+ (+ refers to 15-29% increase in time until arrhythmia)”.
Consider `C[C@H](NC(=O)CN)C(=O)NCC(=O)N1C[C@@H](O)C[C@@H]1C(=O)N1CCC[C@H]1C(=O)N[C@@H](Cc1ccc(O)cc1)C(N)=O` [Compound 5, H-Gly-Ala-Gly-D-Hyp-Pro-Tyr-NH2] (H-GAG[dHyp]PY-NH2), for which the “CaCl2 mice Score” value stood at 1 and the In vivo activity entry is “++ (++ refers to 30-50% increase in time until arrhythmia)”.
In the case of `C[C@H](NC(=O)CN)C(=O)NCC(=O)N1CCC[C@@H]1C(=O)N[C@@H](C)C(=O)N[C@@H](Cc1ccc(O)cc1)C(N)=O` [Compound 7, H-Gly-Ala-Gly-D-Pro-Ala-Tyr-NH2] (H-GAG[dP]AY-NH2), the “CaCl2 mice Score” value was 1.
On to `C[C@H](NC(=O)CN)C(=O)NCC(=O)N1C[C@@H](O)C[C@@H]1C(=O)N[C@@H](C)C(=O)N[C@@H](Cc1ccc(O)cc1)C(N)=O` [Compound 9, H-Gly-Ala-Gly-D-Hyp-Ala-Tyr-NH2] (H-GAG[dHyp]AY-NH2), for which the “CaCl2 mice Score” value turned out to be 1 and the In vivo activity entry is “+ (+ refers to 15-29% increase in time until arrhythmia)”.
In the same order, the values of `C[C@H](NC(=O)CN)C(=O)NCC(=O)N1C[C@@H](O)C[C@@H]1C(=O)N1CCC[C@@H]1C(=O)N[C@@H](Cc1ccc(O)cc1)C(N)=O` [Compound 10, H-Gly-Ala-Gly-D-Hyp-D-Pro-Tyr-NH2] (H-GAG[dHyp][dP]Y-NH2) are 2 and “+++ (+++ refers to >60% increase in time until arrhythmia)”.
On to `C[C@H](NC(=O)CN)C(=O)NCC(=O)N1CSC[C@H]1C(=O)N1CCC[C@H]1C(=O)N[C@@H](Cc1ccc(O)cc1)C(N)=O` [Compound 12, H-Gly-Ala-Gly-T4C-Pro-Tyr-NH2] (H-GAG[Thz]PY-NH2), for which the “CaCl2 mice In vivo, %” value is given as 32 +/− 6%; the “CaCl2 mice Score” value came out at 2; the In vivo activity entry is given as “++ (++ refers to 30-50% increase in time until arrhythmia)”.
Regarding `C[C@H](NC(=O)CN)C(=O)NCC(=O)N1CCCC[C@H]1C(=O)N1CCC[C@H]1C(=O)N[C@@H](Cc1ccc(O)cc1)C(N)=O` [Compound 14, H-Gly-Ala-Gly-PC-Pro-Tyr-NH2] (H-GAG[Pip]PY-NH2), the “CaCl2 mice In vivo, %” value is 21 +/− 11%; the “CaCl2 mice Score” value worked out at 1; the In vivo activity result was “+ (+ refers to 15-29% increase in time until arrhythmia)”.
In the same order, the values of `CC(=O)NCSC[C@H](NC(=O)[C@H](Cc1ccc(O)cc1)NC(=O)[C@@H]1CCCN1C(=O)[C@@H]1C[C@@H](O)CN1C(=O)CNC(=O)[C@H](C)NC(=O)CNC(=O)[C@@H](N)CSCNC(C)=O)C(N)=O` [Compound 16, H-Cys(Acm)-Gly-Ala-Gly-Hyp-Pro-Tyr-Cys(Acm)-NH2] (H-C(Acm)GAG[Hyp]PYC(Acm)-NH2) are 23 +/− 10%, 1 and “+ (+ refers to 15-29% increase in time until arrhythmia)”.
For `C[C@H](NC(=O)CNC(=O)[C@H](CC(N)=O)NC(=O)[C@H](Cc1ccc(O)cc1)NC(=O)[C@@H]1CCCN1C(=O)[C@@H]1C[C@@H](O)CN1)C(=O)NCC(N)=O` [Compound 28, H-Hyp-Pro-Tyr-Asn-Gly-Ala-Gly-NH2] (H-[Hyp]PYNGAG-NH2), the “CaCl2 mice Score” value is given as 2 and the In vivo activity entry is given as “(+) ((+) refers to <15% in time until arrhythmia)”.
Take `CNCC(=O)N[C@@H](C)C(=O)N(C)CC(=O)N1C[C@H](O)C[C@H]1C(=O)N1CCC[C@H]1C(=O)N[C@@H](Cc1ccc(O)cc1)C(N)=O` [Compound 29, H-Sar-Ala-Sar-Hyp-Pro-Tyr-NH2] (H-[Sar]A[Sar][Hyp]PY-NH2): the “CaCl2 mice Score” value turned out to be 1 and the In vivo activity entry was “+ (+ refers to 15-29% increase in time until arrhythmia)”.
In the same order, the values of `C[C@H](NC(=O)CN)C(=O)N(C)CC(=O)N1C[C@H](O)C[C@H]1C(=O)N1CCC[C@H]1C(=O)N[C@@H](Cc1ccc(O)cc1)C(N)=O` [Compound 30, H-Gly-Ala-Sar-Hyp-Pro-Tyr-NH2] (H-GA[Sar][Hyp]PY-NH2) are 2 and “++ (++ refers to 30-50% increase in time until arrhythmia)”.
In the case of `C[C@H](NC(=O)CNC(=O)[C@@H]1C[C@@H](O)CN1C(=O)[C@@H]1CCCN1C(=O)c1cc(I)c(N=[N+]=[N-])cc1O)C(=O)NCC(N)=O` [Compound 32, ASAL(mono-iodo)-Pro-Hyp-Gly-Ala-Gly-NH2] (X1-P[Hyp]GAG-NH2), the In vivo activity entry is “+++ (+++ refers to >60% increase in time until arrhythmia)”.
Consider `C[C@H](NC(=O)CN)C(=O)NCC(=O)N1C[C@H](O)C[C@H]1C(=O)N1CCC[C@H]1C(=O)N[C@@H](Cc1ccc(O)cc1)C(=O)N[C@@H](CCCCN)C(=O)N[C@@H](CCCCN)C(=O)N[C@@H](CCCCN)C(=O)N[C@@H](CCCCN)C(=O)N[C@@H](CCCCN)C(=O)N[C@@H](CCCCN)C(N)=O` [Compound 50] (H-GAG[Hyp]PYKKKKKK-NH2), for which the “CaCl2 mice In vivo, %” value is 33 +/− 17% and the “CaCl2 mice Score” value is 2.
`C[C@H](NC(=O)CN)C(=O)NCC(=O)N1C[C@H](O)C[C@H]1C(=O)N1CCC[C@H]1C(=O)N[C@@H](Cc1ccc(O)cc1)C(=O)N[C@@H](CC(N)=O)C(N)=O` [H-AAP-10-Asn-NH2] (H-GAG[Hyp]PYN-NH2): the “CaCl2 mice In vivo, %” value is on record as 31 +/− 6%.
Still for that read-out and setting: with `NCC(=O)N[C@H](CC(N)=O)C(=O)N[C@@H](Cc1ccc(O)cc1)C(N)=O` [H-G-DN-Y-NH2] (H-Gly-[dN]-Tyr-NH2) the figure was 37 +/− 10%; with `C[C@H](NC(=O)CN)C(=O)N[C@@H](CC(N)=O)C(=O)N[C@@H](Cc1ccc(O)cc1)C(N)=O` [H-GANY-NH2] (H-GANY-NH2), 21 +/− 7%.
`NCC(=O)NCC(=O)N[C@@H](Cc1ccc(O)cc1)C(N)=O` [H-GGY-NH2] (H-Gly-Gly-Tyr-NH2): the “CaCl2 mice In vivo, %” value is listed as 39 +/− 9%.
Same read-out and setting: as for `NCC(=O)N[C@@H](CCCCNc1ccc([N+](=O)[O-])cc1[N+](=O)[O-])C(=O)N[C@@H](Cc1ccc(O)cc1)C(N)=O` [H-GK(DNP)Y-NH2] (H-Gly-Lys(Dnp)-Tyr-NH2), the figure is 25 +/− 7%.
For `NC(=O)C[C@@H](NC(=O)[C@@H](N)Cc1ccc(O)cc1)C(=O)NCC(=O)O` [H-Y-DN-G-OH] (H-Tyr-[dN]-Gly-OH), the “CaCl2 mice In vivo, %” value was 39 +/− 9%.
Still for that read-out and setting: with `NC(=O)CNC(=O)[C@H](CC(N)=O)NC(=O)[C@@H](N)Cc1ccc(O)cc1` [H-YNG-NH2] (H-Tyr-Asn-Gly-NH2) the figure was 34 +/− 9%.
Regarding Ac-Gly-Asn-Tyr-NH2 [Compound 40], the “CaCl2 mice In vivo, %” value is 46 +/− 9%; the “CaCl2 mice Score” value was 2; the In vivo activity entry is on record as “++ (++ refers to 30-50% increase in time until arrhythmia)”.
As for CF3C(O)-AAP10-NH2, the “CaCl2 mice In vivo, %” value is on record as 48 +/− 13% and the “CaCl2 mice Score” value was 3.
Consider “Cyclo(Tyr-Pro-4Hyp-Gly-Ala-Gly-Asn) [Compound 3]”, for which the “CaCl2 mice In vivo, %” value was 59 +/− 9%; the “CaCl2 mice Score” value turned out to be 2; the In vivo activity entry is reported as “+++ (+++ refers to >60% increase in time until arrhythmia)”.
Turning to H-DY-DN-G-NH2, the “CaCl2 mice In vivo, %” value is given as 25 +/− 9% and the “CaCl2 mice Score” value amounted to 1.
In the case of H-GAGGPY-NH2 [H-GAGGPY-NH2], the “CaCl2 mice In vivo, %” value is 32 +/− 9%.
Regarding H-GAG[Hyp]PYKKKKKK-OH [Compound 48], the “CaCl2 mice In vivo, %” value is recorded as 64 +/− 10% and the “CaCl2 mice Score” value turned out to be 3.

The values are drawn from patent publication US7585839B2, “Medical uses of intercellular communication facilitating compounds” (Zealand Pharma A/S, priority 2001, dated 2009).
